Experimental data reported in US7138361B2, “Herbicidal heterocycles” (E. I. du Pont de Nemours and Company, priority 2000, dated 2006).

Legend:
Assay type in all cases: in vivo
rice (Oryza saliva) = assay: Test B flooded paddy test; details: Rate 1000 g/ha, scale of 0 to 100 where 0 is no effect and 100 is complete control, visually evaluated after 13 to 15 days
Outline: (§1)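 Visual rating on a 0–100 scale, where 100 is complete control, made after 13 to 15 days in a greenhouse by comparison with untreated controls. Species treated in the flooded paddy were at the 2-leaf stage: barnyardgrass, duck salad, smallflower flatsedge and rice.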

[1] = test system: smallflower flatsedge (Cyperus difformis); assay: Test B flooded paddy test; details: Rate 1000 g/ha, scale of 0 to 100 where 0 is no effect and 100 is complete control, visually evaluated after 13 to 15 days
Outline: as §1

[2] = test system: duck salad (Heteranthera limosa); assay: Test B flooded paddy test; details: Rate 1000 g/ha, scale of 0 to 100 where 0 is no effect and 100 is complete control, visually evaluated after 13 to 15 days
Outline: as §1

[3] = test system: barnyardgrass (Echinochloa crus-galli); assay: Test B flooded paddy test; details: Rate 1000 g/ha, scale of 0 to 100 where 0 is no effect and 100 is complete control, visually evaluated after 13 to 15 days
Outline: as §1

[4] = test system: cocklebur (Xanthium strumarium); assay: Test C postemergence
Outline: (§2)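 Response scores (0 no effect to 100 complete control) came from visual comparison with untreated controls 12 to 14 days after treatment. Preemergence application was made to seeded soil; postemergence, to plants at the 1- to 4-leaf stage.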

[5] = test system: Surinam grass (Brachiaria decumbens); assay: Test C postemergence
Outline: as §2

[6] = test system: common ragweed (Ambrosia elatior); assay: Test C postemergence
Outline: as §2

[7] = test system: johnsongrass (Sorghum halepense); assay: Test C postemergence
Outline: as §2

[8] = test system: chickweed (Stellaria media); assay: Test C postemergence
Outline: as §2

[9] = test system: wheat (Triticum aestivum); assay: Test C postemergence
Outline: as §2

[10] = test system: Italian ryegrass (Lolium multiflorum); assay: Test C postemergence
Outline: as §2

[11] = test system: canary grass (Phalaris minor); assay: Test C postemergence
Outline: as §2

[12] = test system: winter barley (Hordeum vulgare); assay: Test C postemergence
Outline: as §2

[13] = test system: downy brome (Bromus tectorum); assay: Test C postemergence
Outline: as §2

[14] = test system: green foxtail (Setaria viridis); assay: Test C postemergence
Outline: as §2

[15] = test system: windgrass (Apera spica-venti); assay: Test C postemergence
Outline: as §2

wild oat (Avena fatua) = assay: Test C postemergence
Outline: as §2

[16] = test system: blackgrass (Alopecurus myosuroides); assay: Test C postemergence
Outline: as §2

[17] = Rate 250 g/ha, scale 0 to 100 (0 no effect, 100 complete control)
[18] = Rate 500 g/ha, scale 0 to 100 (0 no effect, 100 complete control)
[19] = Rate 125 g/ha, scale 0 to 100, 0 no effect, 100 complete control

Cc1cc(C)nc(N2CCC(n3ccc(C(C)(C)C)n3)C2=O)c1 (stereo not drawn) [Compound 138]
Plant response rating, Rice (rice (Oryza saliva)): 90 | Plant response rating, Flatsedge [1]: 90 | Plant response rating, Ducksalad [2]: 90 | Plant response rating, Barnyardgrass [3]: 100

COc1cc(N2CCC(n3ccc(C(C)C)n3)C2=O)ccc1Br (stereo not drawn) [Compound 140]
Plant response rating, Cocklebur ([4]; Rate 62 g/ha, scale 0 to 100): 40 | Plant response rating, Cocklebur [4, 17]: 80 | Plant response rating, Cocklebur [4, 18]: 100 | Plant response rating, Surinam grass ([5]; Rate 62 g/ha, scale 0 to 100): 30 | Plant response rating, Surinam grass [5, 19]: 30 | Plant response rating, Surinam grass [5, 17]: 90 | Plant response rating, Ragweed, Common ([6]; Rate 62 g/ha, scale 0 to 100): 50 | Plant response rating, Ragweed, Common [6, 17]: 90 | Plant response rating, Ragweed, Common [6, 18]: 90 | Plant response rating, Johnsongrass ([7]; Rate 62 g/ha, scale 0 to 100): 30 | Plant response rating, Johnsongrass [7, 17]: 50 | Plant response rating, Johnsongrass [7, 18]: 50 | Plant response rating, Johnsongrass ([7]; rate not given, scale 0 to 100): 30 | Plant response rating, Chickweed ([8]; Rate 62 g/ha, scale 0 to 100): 90 | Plant response rating, Chickweed [8, 19]: 100

CCC(C)c1ccn(C2CCN(c3ccc(Br)c(OC)c3)C2=O)n1 (stereo not drawn) [Compound 142]
Plant response rating, Cocklebur ([4]; Rate 62 g/ha, scale 0 to 100): 30 | Plant response rating, Cocklebur [4, 17]: 90 | Plant response rating, Cocklebur [4, 18]: 90 | Plant response rating, Surinam grass ([5]; Rate 62 g/ha, scale 0 to 100): 20 | Plant response rating, Surinam grass [5, 19]: 30 | Plant response rating, Surinam grass [5, 17]: 30 | Plant response rating, Surinam grass [5, 18]: 30 | Plant response rating, Ragweed, Common ([6]; Rate 62 g/ha, scale 0 to 100): 50 | Plant response rating, Ragweed, Common [6, 17]: 90 | Plant response rating, Ragweed, Common [6, 18]: 100 | Plant response rating, Johnsongrass ([7]; Rate 62 g/ha, scale 0 to 100): 20 | Plant response rating, Johnsongrass [7, 17]: 30 | Plant response rating, Johnsongrass [7, 18]: 30 | Plant response rating, Johnsongrass ([7]; rate not given, scale 0 to 100): 30 | Plant response rating, Chickweed [8, 19]: 100

CCC(CC)c1ccn(C2CCN(c3ccc(Br)c(OC)c3)C2=O)n1 (stereo not drawn) [Compound 143]
Plant response rating, Cocklebur ([4]; Rate 62 g/ha, scale 0 to 100): 20 | Plant response rating, Cocklebur [4, 17]: 90 | Plant response rating, Cocklebur [4, 18]: 90 | Plant response rating, Surinam grass ([5]; Rate 62 g/ha, scale 0 to 100): 20 | Plant response rating, Surinam grass [5, 19]: 20 | Plant response rating, Surinam grass [5, 17]: 50 | Plant response rating, Surinam grass [5, 18]: 70 | Plant response rating, Ragweed, Common ([6]; Rate 62 g/ha, scale 0 to 100): 20 | Plant response rating, Ragweed, Common [6, 17]: 90 | Plant response rating, Ragweed, Common [6, 18]: 90 | Plant response rating, Johnsongrass ([7]; Rate 62 g/ha, scale 0 to 100): 0 | Plant response rating, Johnsongrass [7, 17]: 30 | Plant response rating, Johnsongrass [7, 18]: 30 | Plant response rating, Johnsongrass ([7]; rate not given, scale 0 to 100): 10 | Plant response rating, Chickweed ([8]; Rate 62 g/ha, scale 0 to 100): 100 | Plant response rating, Chickweed [8, 19]: 100

COc1cc(N2CCC(n3ccc(C(C)(C)C)n3)C2=O)ccc1Br (stereo not drawn) [Compound 141]
Plant response rating, Cocklebur ([4]; Rate 62 g/ha, scale 0 to 100): 70 | Plant response rating, Cocklebur [4, 17]: 70 | Plant response rating, Cocklebur [4, 18]: 100 | Plant response rating, Surinam grass ([5]; Rate 62 g/ha, scale 0 to 100): 20 | Plant response rating, Surinam grass [5, 19]: 40 | Plant response rating, Surinam grass [5, 17]: 60 | Plant response rating, Surinam grass [5, 18]: 60 | Plant response rating, Ragweed, Common ([6]; Rate 62 g/ha, scale 0 to 100): 20 | Plant response rating, Ragweed, Common [6, 17]: 80 | Plant response rating, Ragweed, Common [6, 18]: 90 | Plant response rating, Johnsongrass ([7]; Rate 62 g/ha, scale 0 to 100): 20 | Plant response rating, Johnsongrass [7, 17]: 30 | Plant response rating, Johnsongrass [7, 18]: 40 | Plant response rating, Johnsongrass ([7]; rate not given, scale 0 to 100): 30 | Plant response rating, Chickweed ([8]; Rate 62 g/ha, scale 0 to 100): 90 | Plant response rating, Chickweed [8, 19]: 100 | Plant response rating, Chickweed [8, 17]: 100 | Plant response rating, Chickweed [8, 18]: 100

COc1cc(N2CCC(n3ccc(C(C)(C)C)n3)C2=O)ccc1Cl (stereo not drawn) [Compound 117]
Plant response rating, Cocklebur ([4]; Rate 62 g/ha, scale 0 to 100): 0 | Plant response rating, Cocklebur [4, 17]: 85 | Plant response rating, Cocklebur [4, 18]: 100 | Plant response rating, Wheat ([9]; Rate 62 g/ha, scale 0 to 100): 10 | Plant response rating, Wheat [9, 17]: 10 | Plant response rating, Wheat [9, 18]: 20 | Plant response rating, Ryegrass ([10]; Rate 62 g/ha, scale 0 to 100): 10 | Plant response rating, Ryegrass [10, 17]: 30 | Plant response rating, Ryegrass [10, 18]: 60 | Plant response rating, Surinam grass ([5]; Rate 62 g/ha, scale 0 to 100): 0 | Plant response rating, Surinam grass [5, 19]: 0 | Plant response rating, Surinam grass [5, 17]: 0 | Plant response rating, Surinam grass [5, 18]: 15 | Plant response rating, Canarygrass ([11]; Rate 62 g/ha, scale 0 to 100): 0 | Plant response rating, Canarygrass [11, 19]: 0 | Plant response rating, Canarygrass [11, 17]: 20 | Plant response rating, Canarygrass [11, 18]: 20 | Plant response rating, Barley, Winter ([12]; Rate 62 g/ha, scale 0 to 100): 0 | Plant response rating, Barley, Winter [12, 19]: 0 | Plant response rating, Barley, Winter [12, 18]: 20 | Plant response rating, Downy Brome ([13]; Rate 62 g/ha, scale 0 to 100): 20 | Plant response rating, Downy Brome [13, 19]: 40 | Plant response rating, Downy Brome [13, 18]: 40 | Plant response rating, Ragweed, Common [6, 18]: 90 | Plant response rating, Foxtail, Green ([14]; Rate 62 g/ha, scale 0 to 100): 10 | Plant response rating, Foxtail, Green [14, 17]: 30 | Plant response rating, Foxtail, Green [14, 18]: 50 | Plant response rating, Johnsongrass ([7]; Rate 62 g/ha, scale 0 to 100): 0 | Plant response rating, Johnsongrass [7, 17]: 0 | Plant response rating, Johnsongrass [7, 18]: 0 | Plant response rating, Johnsongrass ([7]; rate not given, scale 0 to 100): 0 | Plant response rating, Windgrass ([15]; Rate 62 g/ha, scale 0 to 100): 20 | Plant response rating, Windgrass [15, 17]: 40 | Plant response rating, Windgrass [15, 18]: 60 | Plant response rating, Wild Oat (wild oat (Avena fatua); Rate 62 g/ha, scale 0 to 100): 30 | Plant response rating, Wild Oat (wild oat (Avena fatua); [17]): 30 | Plant response rating, Wild Oat (wild oat (Avena fatua); [18]): 30 | Plant response rating, Blackgrass ([16]; Rate 62 g/ha, scale 0 to 100): 0 | Plant response rating, Blackgrass [16, 19]: 0 | Plant response rating, Blackgrass [16, 17]: 20 | Plant response rating, Blackgrass [16, 18]: 40

CCC(C)c1ccn(C2CCN(c3ccc(Cl)c(OC)c3)C2=O)n1 (stereo not drawn) [Compound 119]
Plant response rating, Cocklebur ([4]; Rate 62 g/ha, scale 0 to 100): 50 | Plant response rating, Cocklebur [4, 17]: 70 | Plant response rating, Surinam grass ([5]; Rate 62 g/ha, scale 0 to 100): 0 | Plant response rating, Surinam grass [5, 19]: 0 | Plant response rating, Surinam grass [5, 17]: 0 | Plant response rating, Surinam grass [5, 18]: 20 | Plant response rating, Johnsongrass ([7]; Rate 62 g/ha, scale 0 to 100): 0 | Plant response rating, Johnsongrass [7, 17]: 0 | Plant response rating, Johnsongrass [7, 18]: 0 | Plant response rating, Johnsongrass ([7]; rate not given, scale 0 to 100): 0

CC(C)(C)c1ccn(C2CCN(c3cccc(C(F)(F)F)c3)C2=S)n1 (stereo not drawn) [Compound 22]
Plant response rating, Rice (rice (Oryza saliva)): 90 | Plant response rating, Flatsedge [1]: 100 | Plant response rating, Ducksalad [2]: 100 | Plant response rating, Barnyardgrass [3]: 100

CCC(CC)c1ccn(C2OCN(c3cccc(OC(F)F)c3)C2=O)n1 (stereo not drawn) [Compound 131]
Plant response rating, Cocklebur ([4]; Rate 62 g/ha, scale 0 to 100): 0 | Plant response rating, Cocklebur [4, 17]: 30 | Plant response rating, Cocklebur [4, 18]: 30 | Plant response rating, Surinam grass ([5]; Rate 62 g/ha, scale 0 to 100): 0 | Plant response rating, Surinam grass [5, 17]: 40 | Plant response rating, Surinam grass [5, 18]: 40 | Plant response rating, Johnsongrass ([7]; Rate 62 g/ha, scale 0 to 100): 0 | Plant response rating, Johnsongrass [7, 18]: 30 | Plant response rating, Johnsongrass ([7]; rate not given, scale 0 to 100): 20
